Tested on: cardiac gene expression
Assay: Microarray analysis of cardiac gene expression (GeneChip Mouse Genome 430 2.0)
Type: in vivo, mice
Experimental: Microarray Sample Preparation and Analysis. Animal hearts were rapidly removed, and the atria and right ventricles were cut and immediately plunged into TRIzol Reagent (Life Technologies). Total RNA was isolated following the manufacturer's instructions, purified by phenol-chloroform extraction and then ethanol precipitation, and 20 μg further processed for microarray analysis. Briefly, cDNA synthesis, in vitro transcription, and labeling and fragmentation to produce the oligonucleotide probes were performed as instructed by the GeneChip manufacturer (Affymetrix). The probes were first hybridized to a test array (Affymetrix) and then to the GeneChip Mouse Genome 430 2.0 Array, using the GeneChip Hybridization Oven 640. The chips were washed in a GeneChip Fluidics Station 450 (Affymetrix), and the results were visualized with a GeneChip G7 scanner (Affymetrix). RMA normalization, pairwise comparisons, Student's t test and Benjamini and Hochberg correction were subsequently performed using GeneSifter (VizX Labs, Seattle, Wash.) and Spotfire DecisionSite 8.3 (Spotfire, Inc., Somerville, Mass.).
Effects on Gene Expression Profile. […] One mouse heart was used for each array, and was performed in triplicate, generating a total of 12 arrays. GeneSifter was used to perform RMA normalization, pairwise comparisons of averaged signal intensity values, and Student's t-test with Benjamini and Hochberg correction, and Spotfire was used to perform pairwise comparisons. […] Additionally, genes that were altered between any two N or cardiac hypertrophy samples were removed, as these alterations most likely represented normal variations between mice.

[1] = CH vs drug-treated isoproterenol mice

## C[C@H]1c2cccc(O)c2C(=O)C2=C(O)[C@]3(O)C(=O)C(C(N)=O)=C(O)[C@@H](N(C)C)[C@@H]3[C@@H](O)[C@@H]21 [doxycycline]
[1]
  Number of Altered Genes, Average FC (1.5-fold): 2929
  Number of Altered Genes, Average FC (2-fold): 417
  Number of Altered Genes, Minus disease variability: 578
  Number of Altered Genes, Minus natural variability: 994
  Number of Altered Genes, Reproducible: 497
  Number of Altered Genes, Student's t test: 2274
CH vs drug-treated isoproterenol mice, Benjamini and Hochberg
  Number of Altered Genes, Correction: 2034
CH vs drug-treated isoproterenol mice, of 779 genes altered N vs CH, altered in the reverse direction
  Number of Altered Genes, Disease-specific: 327
GenBank AA419994, vs mice given only isoproterenol
  FC EST: −1.7
GenBank AA796766, vs mice given only isoproterenol
  FC Metallothionein 2 (Mt2): −5.5
GenBank AB006361, vs mice given only isoproterenol
  FC Prostaglandin D synthetase (Ptgds): −2.0
GenBank AF065162, vs mice given only isoproterenol
  FC Potassium channel, subfamily K, member 3 (Kcnk3): 1.7
GenBank AF128196, vs mice given only isoproterenol
  FC Small inducible cytokine A9 (Scya9) (Ccl9) (Mip-1[…]): −2.0
GenBank AF162713, vs mice given only isoproterenol
  FC Group V phospholipase A2 (Pla2g5): 2.2
GenBank AF180518, 1st listing, vs mice given only isoproterenol
  FC GABA-A receptor-associated protein-like protein 1 (Gabarapl1): −3.6
GenBank AF180518, 2nd listing, vs mice given only isoproterenol
  FC GABA-A receptor-associated protein-like protein 1 (Gabarapl1): −3.1
GenBank AF185285, heart, drug + isoproterenol vs isoproterenol-only mice, CH vs normal FC 2.2
  FC Toll-like receptor 4 (TLR4): −1.9 fold
GenBank AF201289, heart, drug + isoproterenol vs isoproterenol-only mice, CH vs normal FC 2.7
  FC TSC22-related inducible leucine zipper 3c (Tilz3c) (Dsip1): −2.3 fold
GenBank AF208292, vs mice given only isoproterenol
  FC Homeodomain interacting protein kinase 2 (Hipk2): 1.9
GenBank AF332060, vs mice given only isoproterenol
  FC Cytochrome b-5 reductase (Cyb5r3): 1.7
GenBank AF384055, heart, drug + isoproterenol vs isoproterenol-only mice, CH vs normal FC −1.6
  FC Transcription factor myocardin (Myocd): 4.0 fold
GenBank AF391192, vs mice given only isoproterenol
  FC F-box-WD40 repeat protein 6 (Fbxw6): 2.9
GenBank AF441120, vs mice given only isoproterenol
  FC F-box only protein 32 (Fbxo32): −3.3
GenBank AI098139, vs mice given only isoproterenol
  FC FK506 binding protein 5 (51 kDa) (Fkbp5): −4.1
GenBank AI326984, vs mice given only isoproterenol
  FC Myosin binding protein C, fast-type (Mybpc2): −3.2
GenBank AI451467, vs mice given only isoproterenol
  FC Heparan sulfate 2-O-sulfotransferase 1 (Hs2st1): 2.2
GenBank AI467657, 1st listing, vs mice given only isoproterenol
  FC EST: −1.9
GenBank AI467657, 2nd listing, vs mice given only isoproterenol
  FC EST: −1.6
GenBank AI480750, vs mice given only isoproterenol
  FC EST: 1.7
GenBank AI481797, vs mice given only isoproterenol
  FC Interferon activated gene 205 (Ifi205): −2.2
GenBank AI503166, vs mice given only isoproterenol
  FC Protein tyrosine phosphatase, receptor-type, F interacting protein, binding protein 2 (Ppfibp2): −2.0
GenBank AI647687, vs mice given only isoproterenol
  FC Dipeptidase 1 (Dpep1): −2.0
GenBank AI835088, vs mice given only isoproterenol
  FC Homocysteine-inducible, endoplasmic reticulum stress-inducible, ubiquitin-like domain member 1 (Herpud1): −3.0
GenBank AK002700, vs mice given only isoproterenol
  FC Sulfotransferase family 1A, phenol-preferring, member 1 (Sult1a1): −3.7
GenBank AK003305, vs mice given only isoproterenol
  FC GPI-ahored HDL-binding protein 1 (Gpihbp1): −1.8
GenBank AK003461, vs mice given only isoproterenol
  FC Ets variant gene 5 (Etv5): −2.0
GenBank AK004331, vs mice given only isoproterenol
  FC Peptidylprolyl isomerase (cyclophilin)-like 1 (Ppil1): 1.8
GenBank AK004726, vs mice given only isoproterenol
  FC Extra cellular link domain-containing 1 (Xkd1): −1.8
GenBank AK004781, vs mice given only isoproterenol
  FC SRY-box containing gene 17 (Sox17): −1.6
GenBank AK005158, vs mice given only isoproterenol
  FC Phospholipase A2 group VII (platelet-activating factor acetylhydrolase, plasma) (Pla2g7): −2.2
GenBank AK007371, 1st listing, vs mice given only isoproterenol
  FC Methyl-CpG binding domain protein 1 (Mbd1): −2.5
GenBank AK007371, 2nd listing, vs mice given only isoproterenol
  FC Methyl-CpG binding domain protein 1 (Mbd1): −2.0
GenBank AK009007, vs mice given only isoproterenol
  FC Homeobox only domain (Hod): 1.5
GenBank AK012109, vs mice given only isoproterenol
  FC F-box and leucine-rich repeat protein 20 (Fbxl20): −2.0
GenBank AK012530, vs mice given only isoproterenol
  FC Dual specificity phosphatase 4 (Dusp4): −2.4
GenBank AK012748, vs mice given only isoproterenol
  FC Hydroxyacylglutathione hydrolase-like (Haghl): 2.0
GenBank AK015134, vs mice given only isoproterenol
  FC Leucine-rich repeat-containing 52 (Lrrc52): −2.6
GenBank AK016616, vs mice given only isoproterenol
  FC Sphingosine kinase 2 (Sphk2): 1.5
GenBank AK017926, vs mice given only isoproterenol
  FC DNA-damage-inducible transcript 4 (Ddit4): −5.6
GenBank AK018314, vs mice given only isoproterenol
  FC Kelch-like 24 (Khl24): −2.1
GenBank AK019530, heart, drug + isoproterenol vs isoproterenol-only mice, CH vs normal FC −2.1
  FC Transforming, acidic coiled-coil containing protein (Tacc1): 3.2 fold
GenBank AK020120, vs mice given only isoproterenol
  FC Protein arginine N-methyltransferase 1 (Prmt1): 1.8
GenBank AK021220, vs mice given only isoproterenol
  FC Hydroxyacylglutathione hydrolase-like (Haghl): 1.8
GenBank AU015378, vs mice given only isoproterenol
  FC Phosphodiesterase 7A (Pde7a): −2.2
GenBank AV016566, vs mice given only isoproterenol
  FC p53 regulated PA26 nuclear protein (Sestrin 1) (Sesn1): −2.3
GenBank AV032877, vs mice given only isoproterenol
  FC EST: −1.5
GenBank AV117919, vs mice given only isoproterenol
  FC Ectonucleoside triphosphate diphosphohydrolase 1 (Entpd1): −2.1
GenBank AV120094, vs mice given only isoproterenol
  FC F-box and leucine-rich repeat protein 20 (Fbxl20): −1.5
GenBank AV152953, heart, drug + isoproterenol vs isoproterenol-only mice, CH vs normal FC 4.4
  FC Transthyretin (Ttr): −2.8 fold
GenBank AV244484, vs mice given only isoproterenol
  FC Solute carrier family 10 (sodium/bile acid cotransporter family), member 6 (Slc10a6): −5.3

— US20080305186A1, “Method and Composition for the Treatment of Cardiac Hypertrophy” (BOARD OF REGENTS, THE UNIVERSITY OF TEXAS SYSTEM, priority 2007, published 2008)
